The test has as its system cells coated with sol-gel vapor. Nature of the test: Proton efflux at the cellular surface, self referencing electrode. Format: cell-based. The note with it: 48 hours after coating cells with sol-gel vapor. The text has this: Data relating to oxygen influx and proton efflux were collected using a self referencing electrode apparatus.
Proton efflux is the result of a variety of cellular properties including metabolism.
Take antimycin A: the “proton efflux after addition of metabolic disrupter” value (from here on “proton efflux after addition”) was “increasing efflux”.

As to `[N-]=[N+]=[N-].[Na+]` [NaN3], the “proton efflux after addition” value was “decreasing efflux”.

For `CC[C@H]1/C=C/C=C/C[C@@H](C)[C@H](O)[C@@](C)(O)C(=O)[C@@H](C)[C@H](O)[C@@H](C)C(=O)[C@@H](C)[C@H](O)[C@@H](C)/C=C/C(=O)O[C@@H]2[C@H](C)[C@H](CC1)O[C@]1(CC[C@H](C)[C@H](C[C@@H](C)O)O1)[C@H]2C` [oligomycin], the “proton efflux after addition” value is recorded as “decreasing efflux”.

The values are drawn from patent US20110104780A1, “ENCAPSULATION OF LIVING CELLS WITHIN AN AEROSOLIZED SOL-GEL MATRIX” (PURDUE RESEARCH FOUNDATION, priority 2008, published 2011).
